Measurements from patent publication US9593149B2, “Amylin and calcitonin receptor agonist” (Novo Nordisk A/S, priority 2014, dated 2017).
Peptide text beside a SMILES is read from it. * marks the point of attachment. C18 diacid = O=C(O)CCCCCCCCCCCCCCCCC(=O)*

What was measured:
Assay (X) pK, T½ in rat = assay type: in vivo, Sprague Dawley rats
Description: Assay (X)—pK—Determination of T½ in Rat
Pharmacokinetic (PK) studies rats were conducted in order to determine the T½ of mimylin peptide after i.v. and s.c. administration.
T½ values of the mimylin derivates of the invention is determined by pharmacokinetic studies in Sprague Dawley male rats, from Taconic Europe and the principles of laboratory animal care are followed.
An acclimatisation period of approximately 7 days was allowed before the animals entered the study. At start of the acclimatisation period the rats were in the weight range of 250-400 g.
The studies were conducted in an animal room which was illuminated to give a cycle of approximately 12 hours light and 12 hours darkness. The animals were group housed and had food and water ad lib. The animals were weighed on the days of dosing.
In the present studies the test substances were administered subcutaneously or intravenously in approximately 20 nmol/kg dose. The animals received a single subcutaneous injection to the neck for subtaneous administration or directly into the tail vein for intravenous administration. Each test substance was given to typically three but in some cases two or four animals.
A full plasma concentration-time profile, employing 8-10 sampling points, was obtained from each animal. In example blood samples were collected according to the following schedule: After subcutaneous or intravenous administration:
At each sampling time, 0.08 to 0.10 ml of blood was drawn from each animal. The blood samples were taken in the sublingual vein via venous puncture and the use of a capillary tube.
The blood samples were stabilised with EDTA. Blood samples were kept on ice for max 20 min. before centrifugation. Plasma was separated using centrifugation (i.e. at 4° C., 10 min., 1500G) and was immediately transferred to Micronic tubes or PCR plates. Approximately 40 μl plasma was transferred and was stored at −20° C. until assayed. The plasma samples were assayed for the content of mimylin compound by LCMS
The plasma concentration-time profiles were analysed by a non-compartmental pharmacokinetic analysis (NCA) using Phoenix WinNonlin 6.3 (Pharsight Inc., Mountain View, Calif., USA). NCA was performed using the individual plasma concentration-time profiles from each animal. T½ is the terminal half-life=In2/λz and was determined from λz, the first order rate constant associated with the terminal (log-linear) portion of the curve, estimated by linear regression of time vs. log concentration.

[1] = Assay (XVI) T½ and subcutaneous bioavailability in LYD-pigs; assay type: in vivo
Description: Assay (XVI)—Determination of T½ and Subcutaneous Bioavailability in LYD-Pigs
Pharmacokinetic (PK) studies in Landrace Yorkshire Duroc crossbreed (LYD) pigs were conducted in order to determine a) the protraction of the mimylin derivative after i.v. administration, and b) the bioavailability of the mimylin derivative after s.c. administration The LYD pig were delivered, treated and acclimatised as described in ASSAY XV above.
In the i.v. and s.c. studies, the mimylin derivative was dissolved in 50 mM phosphate, 70 mM sodium chloride and 0.05% polysorbate 80, pH=8.0 to a concentration of approximately 100 nmol/mL. Animals were dosed with 2 nmol/kg s.c. and 5 nmol/kg i.v.
The animals were dosed subcutaneously or intravenously as follows. […]
The plasma concentration of the respective mimylin derivative was analysed using LC-MS. Individual plasma concentration-time profiles were analysed by a non-compartmental model in Phoenix WinNonlin version 6.3 (Pharsight Inc., Mountain View, Calif., USA).
The resulting terminal half-life was determined based on intravenous administration. T½ is the terminal half-life=In2/λz and was determined from λz, the first order rate constant associated with the terminal (log-linear) portion of the curve, estimated by linear regression of time vs. log concentration.
The absolute bioavailability (F) was calculated as follows: […]

Question: What does the source list for CC(C)C[C@H](NC(=O)[C@H](C)NC(=O)[C@H](C)NC(=O)[C@@H](NC(=O)[C@H](CO)NC(=O)[C@H](CC(C)C)NC(=O)[C@H](CCC(=O)O)NC(=O)[C@H](CO)NC(=O)[C@H](C)NC(=O)[C@H](CCC(=O)O)NC(=O)CCCCCCCCCCCCCCCCC(=O)O)[C@@H](C)O)C(=O)NCC(=O)N[C@@H](CCCNC(=N)N)C(=O)N[C@@H](CC(C)C)C(=O)N[C@@H](CO)C(=O)N[C@@H](C)C(=O)N[C@@H](CCC(=O)O)C(=O)N[C@@H](CC(C)C)C(=O)N[C@@H](Cc1cnc[nH]1)C(=O)N[C@@H](CCC(=O)O)C(=O)N[C@@H](CC(C)C)C(=O)N[C@@H](C)C(=O)N[C@H](C(=O)N[C@@H](CC(C)C)C(=O)N1CCC[C@H]1C(=O)N[C@@H](CCCNC(=N)N)C(=O)N[C@H](C(=O)N[C@@H](CCC(=O)O)C(=O)N[C@H](C(=O)NCC(=O)N1CCC[C@H]1C(=O)N[C@@H](CCC(=O)O)C(=O)N[C@@H](CO)C(=O)N1CCC[C@H]1C(N)=O)[C@@H](C)O)[C@@H](C)O)[C@@H](C)O [Ex. #2, [N-terminal(C18 diacid)]mimylin] ({C18 diacid}-EASELSTAALGRLSAELHELATLPRTETGPESP-NH2)?
Answer: PK rat iv T½ (Assay (X) pK, T½ in rat; i.v.): 12 h; PK rat sc T½ (Assay (X) pK, T½ in rat; s.c.): 13 h; Subcutaneous bioavailability (%) ([1]; LYD-pigs): 99%; LYD-pigs iv PK, t½ ([1]; i.v., harmonic mean, n = 3): 64 h
